# Experimental data from patent US8642063B2, “Implantable medical device coatings with biodegradable elastomer and releasable taxane agent” (priority 2008, dated 2014).
# Assay: Solubility / elution of paclitaxel solid forms in porcine serum
# Assay type: physicochemical
# Conditions: 37° C.
# Text: For example, amorphous and dihydrate taxane solid forms may be readily identified and differentiated by visual appearance and elution rates. […] In addition, the presence of different solid forms of the taxane agent in a medical device coating can be identified and quantified by contacting the coating with an elution medium that selectively dissolves one solid form more readily than a second solid form. In solution with an elution medium, such as porcine serum or blood, the presence of the taxane agent can be identified, for example by using ultraviolet (UV) spectroscopy or high pressure liquid chromatography (HPLC). […] Non-solvated solid forms include amorphous or anhydrous solid forms.
# The amount of taxane agent released from coating into the elution medium, and the rate of release of the taxane agent from a coating, can be measured by any suitable method that allows for measurement of the release of the taxane agent with a desired level of accuracy and precision. The taxane agent in the coating can be determined by dissolving the coating in a suitable elution medium and subsequently detecting the amount of taxane agent in the elution medium. The taxane agent dissolved in the elution medium can be detected using any suitable technique. […] This correlation involves the linear relationship between optical density (absorbance) and concentration of an absorbing species. […]
compound,measurement,value
"CC(=O)O[C@H]1C(=O)[C@@]2(C)[C@H]([C@H](OC(=O)c3ccccc3)[C@]3(O)C[C@H](OC(=O)[C@H](O)[C@@H](NC(=O)c4ccccc4)c4ccccc4)C(C)=C1C3(C)C)[C@]1(OC(C)=O)CO[C@@H]1C[C@@H]2O [dihydrate paclitaxel, paclitaxel]",solubility after 24 hours in porcine serum,less than 40 wt %
